In general, IC50 refers to the point on the concentration scale where inhibition reaches its midpoint. High values mean weaker potency, low ones greater potency. The term hepatocyte CLint denotes the rate of metabolic loss divided by the concentration. Lower therefore signals greater metabolic stability.

Consider 15 compounds from US20260347364A1, “PYRAZOLO[4,3-F]QUINAZOLINE DERIVATIVES AS MODULATORS OF G12D MUTANT KRAS USEFUL FOR THE TREATMENT OF CANCER” (JAZZ PHARMACEUTICALS IRELAND LTD., priority 2023, published 2026).

The structures appear in SMILES notation. Where only a bound is given, the exact number is not on record here.

Series [1] has as its target T1, KRAS G12V (Homo sapiens, UniProt P01116, G12V).
T1 construct: 4 nM KRAS; aa1-188 containing the G12V, G12C, G12A or G12S amino acid substitution
As to the kind of experiment: HTRF nucleotide exchange assay, KRAS G12V. The series is classed as biochemical. Conditions: HTRF nucleotide exchange assay (NEA), class symbols. Here is the method: HTRF Nucleotide Exchange Assay Method
The capacity of compounds to bind KRAS G12D, other KRAS mutants and wildtype RAS isoforms was quantified using a HTRF nucleotide exchange assay. Recombinant human RAS protein (2 nM; aa1-188 KRAS WT, HRAS WT, NRAS WT, or KRAS containing the G12D, G13D or Q61H amino acid substitutions, or 4 nM KRAS; aa1-188 containing the G12V, G12C, G12A or G12S amino acid substitution, an N-terminal 6× His-tag and leader sequence), and 2 nM Europium-labeled anti-6× His antibody were mixed in assay buffer (10 mM HEPES pH 7.3, 150 mM NaCl, 5 mM MgCl2, 0.05% BSA, 0.0025% NP-40 and 100 mM KF) with various concentrations of compound in a 384-well plate and a volume of 5 μL. After a 60-minute incubation at room temperature, 5 μl of 200 nM EDA-GTP-DY647P1 (diluted in assay buffer) was added to the plate. Following 30-minute incubation at room temperature, time-resolved fluorescence was measured on a PerkinElmer Envision plate reader. DMSO (0.3%) and unlabeled GDP (1 μM) or equivalent tool compound were used to generate the Max and Min assay signals, respectively. Data was analysed using a four-parameter logistic model to calculate IC50 values, with at least two independent replicates were performed for each compound. The results are presented as IC50s in Table 29 where “A” corresponds to an IC50 ≤10 nM, “B” to an IC50 >10 nM up to 100 nM, “C” is >100 nM up to 10 μM, “D” represents <49% inhibition at 10 μM and ND=not determined: […]
A general note: Time-resolved FRET reads energy transfer from a long-lived donor to a nearby acceptor.

The target in series [2] is T2, KRAS G12D (Homo sapiens, UniProt P01116, G12D).
T2 construct: aa1-188 KRAS WT, HRAS WT, NRAS WT, or KRAS containing the G12D
T2 sequence (P01116 1-188 isoform P01116-2 G12D): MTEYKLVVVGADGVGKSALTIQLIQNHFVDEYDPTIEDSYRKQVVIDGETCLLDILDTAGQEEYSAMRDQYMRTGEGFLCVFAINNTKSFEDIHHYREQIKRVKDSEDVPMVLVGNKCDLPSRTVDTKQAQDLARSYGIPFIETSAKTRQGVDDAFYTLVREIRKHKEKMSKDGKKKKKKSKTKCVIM
As to the kind of experiment: HTRF nucleotide exchange assay, KRAS G12D. The series is classed as biochemical. Conditions: HTRF nucleotide exchange assay (NEA), class symbols.

Series [3] deals with T3, KRAS WT (Homo sapiens, UniProt P01116).
T3 construct: aa1-188 KRAS WT
T3 sequence (P01116 1-188 isoform P01116-2): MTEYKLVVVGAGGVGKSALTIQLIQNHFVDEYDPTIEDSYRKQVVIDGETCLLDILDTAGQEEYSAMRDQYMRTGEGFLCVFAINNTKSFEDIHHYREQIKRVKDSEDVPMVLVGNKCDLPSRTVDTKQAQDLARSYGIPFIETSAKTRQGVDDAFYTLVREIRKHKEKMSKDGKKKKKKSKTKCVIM
As to the kind of experiment: HTRF nucleotide exchange assay, KRAS WT. Particulars: HTRF nucleotide exchange assay (NEA), class symbols. In kind it is biochemical.

A short description of series [4]: Metabolic stability in human liver hepatocytes (substrate depletion, intrinsic clearance). The series is classed as in vitro ADME. Particulars: 37° C., Williams E Media, LC-MS/MS depletion. From the text:
Determining the in vitro metabolic stability of a new chemical entity (NCE) is a very useful tool within drug discovery. A metabolic stability study will determine the in vitro intrinsic clearance (CLint) of a compound. The CLint value represents a measure of enzyme activity toward an NCE and is independent of other physiological factors such as blood flow. Determination of CLint within drug discovery helps to identify metabolic liabilities within a compound series, and ultimately assist in the identification of compounds with improved metabolic stability. The CLint value determined in vitro can be used to predict in vivo clearance (using species specific scaling factors) in pre-clinical species and ultimately in human. The liver is the primary organ involved in drug metabolism, of which there are two pathways-Phase I and Phase II. Phase I metabolism is primarily oxidative with the majority of these oxidations catalysed by cytochrome P450 enzymes (CYPs) which are located in the smooth endoplasmic reticulum (ER) in the liver. Phase II metabolism is catalysed by various conjugative enzymes which are located mainly in the ER and the cytosol. The in vitro systems used to study drug metabolism are mainly subcellular fractions such as liver microsomes or whole cells (hepatocytes) isolated from the liver. Hepatocytes, being whole cells, contain both Phase I and Phase II metabolizing enzymes and produce their own cofactors. This assay determines the metabolic stability of test compounds in human liver hepatocytes using the substrate depletion approach. The lower limit of the assay is a T1/2 >462 min and a CLint […]. Therefore the upper limit of the assay is 277 μL/min/106 cells. Any CLint value higher than this should be given an out of range value. Hepatocytes were plated in Williams E Media with added L-glutamine, compounds were added as 1 mM DMSO solution and incubated at 37° C. Compound depletion was measured by LC-MS/MS at multiple time points following quenching with cold acetonitrile. CLint was calculated from the following equation:
CLint(μl/min/106cells)=(In(2)/T1/2)*1000/cell density(10^6cells/mL)

T1 sequence (P01116 1-188 isoform P01116-2 G12V): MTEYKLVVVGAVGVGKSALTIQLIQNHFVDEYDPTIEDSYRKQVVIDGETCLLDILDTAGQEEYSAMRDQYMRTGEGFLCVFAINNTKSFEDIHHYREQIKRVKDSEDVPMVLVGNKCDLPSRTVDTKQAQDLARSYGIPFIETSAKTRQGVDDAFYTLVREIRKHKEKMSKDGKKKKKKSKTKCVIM

On to `CCc1c(F)ccc2cc(O)cc(-c3cc4nc(OC[C@@]56CCCN5C[C@H](F)C6)nc(N5CCCC(C)(O)C5)c4c4cn(C)nc34)c12` (mixture of isomers) [Example 7, 1-[4-(8-ethyl-7-fluoro-3-hydroxy-1-naphthyl)-2-methyl-7-[[rac-(2R,8S)-2-fluoro-1,2,3,5,6,7-hexahydropyrrolizin-8-yl]methoxy]pyrazolo[4,3-f]quinazolin-9-yl]-3-methyl-piperidin-3-ol], for which the IC50 in series [1], in series [2] and in series [3] was not above 10 nM throughout.

In the case of `C#Cc1c(F)ccc2cc(O)cc(-c3cc4nc(OC[C@@]56CCCN5C[C@H](F)C6)nc(N5CCCOCC5)c4c4cn(C)nc34)c12` [Example 2, 5-ethynyl-6-fluoro-4-[2-methyl-9-(1,4-oxazepan-4-yl)-7-[[(2R,8S)-2-fluoro-1,2,3,5,6,7-hexahydropyrrolizin-8-yl]methoxy]pyrazolo[4,3-f]quinazolin-4-yl]naphthalen-2-ol], the IC50 in series [2] and in series [3] was not above 10 nM throughout. Also, the hepatocyte CLint in series [4] worked out at 54.2 µL/min/1e6 cells.

With `CCc1c(F)ccc2cc(O)cc(-c3cc4nc(OC[C@@]56CCCN5C[C@H](F)C6)nc(N5CCCCCC5)c4c4cn(C)nc34)c12` [Example 9, 4-[9-(azepan-1-yl)-2-methyl-7-[[(2R,8S)-2-fluoro-1,2,3,5,6,7-hexahydropyrrolizin-8-yl]methoxy]pyrazolo[4,3-f]quinazolin-4-yl]-5-ethyl-6-fluoro-naphthalen-2-ol], the IC50 in series [2] and in series [3] was 100 to 10000 nM in each case. Besides, in series [4], the hepatocyte CLint worked out at 42.5 µL/min/1e6 cells.

On to `C#Cc1c(F)ccc2cc(O)cc(-c3cc4nc(OC[C@@]56CCCN5C[C@H](F)C6)nc(N5CCCCCC5)c4c4cn(C)nc34)c12` [Example 12, 4-[9-(azepan-1-yl)-2-methyl-7-[[(2R,8S)-2-fluoro-1,2,3,5,6,7-hexahydropyrrolizin-8-yl]methoxy]pyrazolo[4,3-f]quinazolin-4-yl]-5-ethynyl-6-fluoro-naphthalen-2-ol], for which the IC50 in series [2] and in series [3] was 10 to 100 nM throughout. Further, the hepatocyte CLint in series [4] was determined as 47.8 µL/min/1e6 cells.

On to `CCc1c(F)ccc2cc(O)cc(-c3cc4nc(OC[C@@]56CCCN5C[C@H](F)C6)nc(N5CC6CCC5CN6)c4c4cn(C)nc34)c12` (stereo partly drawn) [Example 14, 4-[9-(2,5-diazabicyclo[2.2.2]octan-2-yl)-2-methyl-7-[[(2R,8S)-2-fluoro-1,2,3,5,6,7-hexahydropyrrolizin-8-yl]methoxy]pyrazolo[4,3-f]quinazolin-4-yl]-5-ethyl-6-fluoro-naphthalen-2-ol], for which the IC50 in series [1] was 10 to 100 nM; in series [2], not above 10 nM; in series [3], 100 to 10000 nM.

As for `CCc1c(F)ccc2cc(O)cc(-c3c(F)c4nc(OC[C@@]5(CN(C)C)CC5(F)F)nc(N5CCOCC(C)(O)C5)c4c4cn(C)nc34)c12` (stereo partly drawn) [Example 236, 4-[4-(8-ethyl-7-fluoro-3-hydroxy-1-naphthyl)-5-fluoro-2-methyl-7-[[(1S)-1-[(dimethylamino)methyl]-2,2-difluoro-cyclopropyl]methoxy]pyrazolo[4,3-f]quinazolin-9-yl]-6-methyl-1,4-oxazepan-6-ol], the IC50 in series [2] and in series [3] was not above 10 nM throughout.

As for `CCc1c(F)ccc2cc(O)cc(-c3c(C)c4nc(OCC5(CF)COC5)nc(N5CC6CCC5CN6)c4c4cn(C)nc34)c12` (stereo not drawn) [Example 240, 4-[9-(2,5-diazabicyclo[2.2.2]octan-2-yl)-7-[[3-(fluoromethyl)oxetan-3-yl]methoxy]-2,5-dimethyl-pyrazolo[4,3-f]quinazolin-4-yl]-5-ethyl-6-fluoro-naphthalen-2-ol], the IC50 in series [2] was in the range of 10 to 100 nM; in series [3], 100 to 10000 nM.

On to `CCc1c(F)ccc2cc(O)cc(-c3c(C)c4nc(OCC5(C#N)CCOC5)nc(N5CC6CCC(C5)N6)c4c4cn(C)nc34)c12` (stereo not drawn) [Example 241, 3-[[9-(3,8-diazabicyclo[3.2.1]octan-3-yl)-4-(8-ethyl-7-fluoro-3-hydroxy-1-naphthyl)-2,5-dimethyl-pyrazolo[4,3-f]quinazolin-7-yl]oxymethyl]tetrahydrofuran-3-carbonitrile], for which the results for the IC50 in series [2] and in series [3] were not above 10 nM and 100 to 10000 nM, respectively.

For `CCc1c(F)ccc2cc(O)cc(-c3c(C)c4nc(OCC5(CO)CC5)nc(N5CC6CCC(C5)N6)c4c4cn(C)nc34)c12` [Example 242, 4-[9-(3,8-diazabicyclo[3.2.1]octan-3-yl)-7-[[1-(hydroxymethyl)cyclopropyl]methoxy]-2,5-dimethyl-pyrazolo[4,3-f]quinazolin-4-yl]-5-ethyl-6-fluoro-naphthalen-2-ol], the IC50 is not above 10 nM in series [2] and 100 to 10000 nM in series [3].

As for `CCc1c(F)ccc2cc(O)cc(-c3c(C)c4nc(OC[C@@]56CCCN5C[C@H](F)C6)nc(N5CCCn6nc(COC)cc6C5)c4c4cn(C)nc34)c12` [Example 243], the IC50 in series [2] and in series [3] was not above 10 nM throughout.

For the compound `CCc1c(F)ccc2cc(O)cc(-c3c(F)c4nc(OCC5(C#N)CCOC5)nc(N5CCCNC(=O)C5)c4c4cn(C)nc34)c12` (stereo not drawn) [Example 244, 3-[[4-(8-ethyl-7-fluoro-3-hydroxy-1-naphthyl)-5-fluoro-2-methyl-9-(3-oxo-1,4-diazepan-1-yl)pyrazolo[4,3-f]quinazolin-7-yl]oxymethyl]tetrahydrofuran-3-carbonitrile], the IC50 in series [2] and in series [3] was 100 to 10000 nM in each case.

Turning to `CCc1c(F)ccc2cc(O)cc(-c3c(F)c4nc(OCC5(CN(C)C)CC5)nc(N5CCOC[C@@](C)(O)C5)c4c4cn(C)nc34)c12` [Example 245, (6S)-4-[7-[[1-[(dimethylamino)methyl]cyclopropyl]methoxy]-4-(8-ethyl-7-fluoro-3-hydroxy-1-naphthyl)-5-fluoro-2-methyl-pyrazolo[4,3-f]quinazolin-9-yl]-6-methyl-1,4-oxazepan-6-ol], the IC50 in series [2] and in series [3] was not above 10 nM in each case.

As to `CCc1c(F)ccc2cc(O)cc(-c3c(F)c4nc(OCC5(CN6CC(C)OC(C)C6)CC5)nc(N5CCOCC(C)(O)C5)c4c4cn(C)nc34)c12` (stereo not drawn) [Example 246, 4-[7-[[1-[(2,6-dimethylmorpholin-4-yl)methyl]cyclopropyl]methoxy]-4-(8-ethyl-7-fluoro-3-hydroxy-1-naphthyl)-5-fluoro-2-methyl-pyrazolo[4,3-f]quinazolin-9-yl]-6-methyl-1,4-oxazepan-6-ol], the IC50 in series [2] and in series [3] was not above 10 nM in each case.

For `C#Cc1c(F)ccc2cc(O)cc(-c3ncc4c(N5CCCCCC5)nc(OC[C@@]56CCCN5C[C@H](F)C6)nc4c3F)c12` [WO2022248885 Example 84, reference compound], the hepatocyte CLint in series [4] was 95.6 µL/min/1e6 cells.

For `C#Cc1c(F)ccc2cc(O)cc(-c3ccc4c(N5CCCOCC5)nc(OC[C@@]56CCCN5C[C@H](F)C6)nc4c3F)c12` [WO2022258974 Example 26, reference compound], the hepatocyte CLint in series [4] amounted to 94.6 µL/min/1e6 cells.
